Measurements as given in patent publication US20250009819A1, “NOVEL PROBIOTICS AND USE THEREOF” (PBLBIOLAB CO., LTD., priority 2021, published 2025).

Key:
Type in all cases: in vivo, C57BL/6 male mice
[1] = tested on: animals with LPS-induced cognitive impairment; assay: Animals with LPS-induced cognitive impairment: cognitive improvement, hippocampus indicators; settings: LPS-treated mice, 1×10^9 CFU/mouse or sulfasalazine 50 mg/kg once a day for 5 days
Protocol: (§1) Hippocampus, colon, and spleen tissues were homogenized by adding 1 ml of RIPA buffer (Gibco) containing protease inhibitor cocktail and centrifuged at 4° C., 13000 rpm for 15 min to obtain supernatant. Indicators of this supernatant were measured using an ELISA kit (Ebioscience).
The Y-shaped maze measurement device is shaped like an alphabetical Y with three arms extending from it, each arm being 25 cm long, 14 cm high, 5 cm wide, and positioned at the same angle. At the end of one arm of the Y-shaped maze, the animal was placed with its head facing out and allowed to freely navigate the arm for 8 minutes. The animal's movements were recorded, and reported as arm entries when the animal entered the arm with its hind paw, and the animal's movement was represented by an alternation, which was defined as one alternation when the animal passed through the three arms in succession. The amount of spontaneous alternation behavior was expressed as a percentage between the actual number of alternations and the maximum possible number of alternations (i.e., the total number of […] minus 2).
The experiment was conducted in a box (40×40×40 cm) made so that the outside could not be seen from the inside. Two objects (A, A′) of the same shape and size were fixedly disposed in a box and the mouse was relocated to start from the center of the box. Then, the number of times the mouse made contact with the two objects was recorded for 10 minutes. After 24 hours, one of the two objects was replaced with a new object (A, B). Then, one original object and one new object were prepared, and the animal's exploration time was measured.
C57BL/6 male mice (5 weeks old, 19-21 g) were divided (6 mice in each group) and acclimatized to the laboratory for 1 week. To induce intestinal and brain diseases, mice were intraperitoneally administered Escherichia coli-derived LPS (10 μg/kg) once daily for 5 days. […] Experimental animals in the normal group were orally administered with a physiological saline solution, which was used to suspend lactic acid bacteria. The day following the conclusion of sample administration, the experimental animals were sacrificed, and samples from the brain hippocampus, colon, and spleen were collected. In the Hippocampus, inflammatory indicators, such as IFN-γ, TNF-α, and IL-10, were measured using ELISA. In the colon, intestinal length and inflammatory indicators, such as IFN-γ, TNF-α, and IL-10, were measured. In the spleen, Th1 cells and Treg cells were measured by FACS (Fluorescence-Activated Cell Sorting).

[2] = tested on: immunosuppressed animals induced by anticancer drug (cyclophosphamide); assay: Immunosuppressed animals induced by cyclophosphamide: improvement effect in spleen; settings: cyclophosphamide (CP)-treated mice, 1×10^9 CFU/mouse orally once a day for 5 days; for Foxp3 (fold change) / Tbet (fold change) / Tbet/Foxp3: spleen qPCR; for IFN-γ/IL-10 / IL-10 / Interferon (IFN)-γ / NK cell cytoxicity (%) / Phagocytosis (%) / TNF-a/IL-10 / TNF-α: spleen
Protocol: as §1
(§2) mRNA was isolated from spleen tissue using the RNA Isolation Kit: RNeasy Mini Kit (QIAGEN), converted to cDNA, and qPCR was performed to measure the expression rates of Tbet, Foxp3, and glyceraldehyde 3-phosphate dehydrogenase (GAPDH). The reaction product was first treated at 95° C. for 30 seconds, followed by 38 cycles of 5 seconds at 95° C. and 30 seconds at 72° C. for analysis.
C57BL/6 male mice (5 weeks old, 19-21 g) were divided (6 mice in each group) and acclimatized to the laboratory for 1 week. To induce intestinal and brain diseases, the mice were administered with cyclophosphamide (CP, 150 mg/kg, dissolved in physiological saline) for 1 day, rested for 1 day, and then administered intraperitoneally the next day. Meanwhile, the normal group was administered intraperitoneally with 0.1 ml of physiological saline. […] The day following the conclusion of sample administration, the experimental animals were sacrificed, and samples from the brain hippocampus, colon, and spleen were collected. In the Hippocampus, inflammatory indicators, such as IFN-γ, TNF-α, and IL-10, were measured using ELISA. In the colon, intestinal length and inflammatory indicators, such as IFN-γ, TNF-α, and IL-10, were measured. In the spleen, Th1 cells and Treg cells were measured by FACS (Fluorescence-Activated Cell Sorting).

[3] = tested on: healthy animal; assay: Healthy animal: spleen parameters; settings: healthy mice, 1×10^9 CFU/mouse orally once a day for 5 days; for Foxp3 (fold change) / Tbet (fold change) / Tbet/Foxp3: spleen qPCR; for IFN-γ/IL-10 / IL-10 / Interferon (IFN)-γ / NK cell cytoxicity (%) / Phagocytosis (%) / TNF-a/IL-10 / TNF-α: spleen
Protocol: as §1, §2
C57BL/6 male mice (5 weeks old, 19-21 g) were divided (6 mice in each group) and acclimatized to the laboratory for 1 week. The mice were orally administered once a day for 5 days with lactic acid bacteria as a test sample suspended in physiological saline solution at a concentration of 1×10^9 CFU per mouse (NK210 alone (LR): 1×10^9 CFU/mouse, NK219 alone (BL): 1×10^9 CFU/mouse, combined (210+219): 210, 8×10^8 CFU/mouse and 219, 2×10^8 CFU/mouse). […] The day following the conclusion of sample administration, the experimental animals were sacrificed, and samples from the brain hippocampus, colon, and spleen were collected. In the Hippocampus, inflammatory indicators, such as IFN-γ, TNF-α, and IL-10, were measured using ELISA. In the colon, intestinal length and inflammatory indicators, such as IFN-γ, TNF-α, and IL-10, were measured. In the spleen, Th1 cells and Treg cells were measured by FACS (Fluorescence-Activated Cell Sorting).

Substance | Exoporation (%) (in NOR task) [1] | Spontaneous alteration (%) (in Y-maze task) [1] | IFN-γ/IL-10 ([1]; hippocampus) | IL-10 ([1]; hippocampus) [pg/mg] | Interferon (IFN)-γ ([1]; hippocampus) [pg/mg] | TNF-α/IL-10 ([1]; hippocampus) | Foxp3 (fold change) [2] [fold change] | Tbet (fold change) [2] [fold change] | Tbet/Foxp3 [2] | IFN-γ/IL-10 [2] | IL-10 [2] [pg/mg] | Interferon (IFN)-γ [2] [pg/mg] | NK cell cytoxicity (%) [2] [%] | Phagocytosis (%) [2] [%] | TNF-a/IL-10 [2] | TNF-α [2] [pg/mg] | Foxp3 (fold change) [3] [fold change] | Tbet (fold change) [3] [fold change] | Tbet/Foxp3 [3] | IFN-γ/IL-10 [3] | also measured
Lactobacillus rhamnosus NK210 | 76.00 | 69.36 | 0.52 | 46.94 | 23.04 | 0.23 | 0.37 | 0.75 | 2.05 | 2.31 | 3.31 | 7.39 | 8.26 | 58.65 | 1.04 | 3.20 | 1.05 | 1.41 | 1.45 | 1.38 | IL-10 [3]: 9.45 pg/mg; Interferon (IFN)-γ [3]: 13.02 pg/mg; NK cell cytoxicity (%) [3]: 6.65%; Phagocytosis (%) [3]: 50.03%; TNF-a/IL-10 [3]: 0.37; TNF-α [3]: 3.48 pg/mg
Bifidobacterium longum NK219 | 76.97 | 71.06 | 0.50 | 47.71 | 24.09 | 0.24 | 0.36 | 0.95 | 2.49 | 2.11 | 2.90 | 5.56 | 8.90 | 50.36 | 0.87 | 2.45 | 1.05 | 1.80 | 1.86 | 1.35 | TNF-α ([1]; hippocampus): 10.72 pg/mg; IL-10 [3]: 9.29 pg/mg; Interferon (IFN)-γ [3]: 12.56 pg/mg; NK cell cytoxicity (%) [3]: 8.52%; Phagocytosis (%) [3]: 64.57%; TNF-a/IL-10 [3]: 0.38; TNF-α [3]: 3.49 pg/mg
